From ChEMBL document CHEMBL4024738, “Design of antitumor agents containing carbohydrate based on GLUT1, and evaluation of antiproliferative activity” (Bioorg Med Chem Lett, 2017)
One block for each molecule: values may come before it.

How the values were obtained:
[1] = Antiproliferative activity against human U87 cells after 48 hrs by MTT assay; format: functional, cell-based, U-87MG ATCC; details: U-87 MG
A549 [2] = assay: Antiproliferative activity against human A549 cells after 48 hrs by MTT assay; format: functional, cell-based; details: A549, 48 h
HepG2 = assay: Antiproliferative activity against human HepG2 cells after 48 hrs by MTT assay; format: functional, cell-based; details: HepG2, 48 h
HeLa = assay: Antiproliferative activity against human HeLa cells after 48 hrs by MTT assay; format: functional, cell-based
[3] = biological target: T1, Solute carrier family 2, facilitated glucose transporter member 1 (Homo sapiens, UniProt P11166); assay: Substrate activity at GLUT1 in human A549 cells assessed cellular uptake at 20 uM after 8 hrs by HPLC analysis relative to control; format: ADME, cell-based; details: a549, 8 h
T1 sequence (P11166 whole entry): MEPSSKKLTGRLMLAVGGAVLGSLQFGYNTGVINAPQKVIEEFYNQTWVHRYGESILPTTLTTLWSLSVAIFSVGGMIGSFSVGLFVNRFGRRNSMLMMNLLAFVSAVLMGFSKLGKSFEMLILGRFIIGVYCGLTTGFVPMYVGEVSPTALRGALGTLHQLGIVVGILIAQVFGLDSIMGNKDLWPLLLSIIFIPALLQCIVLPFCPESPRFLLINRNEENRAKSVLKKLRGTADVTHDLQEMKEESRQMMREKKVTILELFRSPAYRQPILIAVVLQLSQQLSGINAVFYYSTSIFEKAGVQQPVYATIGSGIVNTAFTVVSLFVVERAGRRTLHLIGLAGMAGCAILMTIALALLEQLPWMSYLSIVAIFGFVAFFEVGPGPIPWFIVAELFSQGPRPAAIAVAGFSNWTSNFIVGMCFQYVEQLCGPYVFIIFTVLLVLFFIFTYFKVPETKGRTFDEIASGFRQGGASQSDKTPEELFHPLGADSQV

A549 [4] = assay: Potency index, ratio of gefitinib IC50 to compound IC50 against human A549 cells; format: functional
A549 [5] = assay: Antimigratory activity against human A549 cells assessed as reduction in cell migration towards wound area after 48 hrs by phase contrast microscopic method; format: functional, cell-based
A549 [6] = assay: Induction of apoptosis in human A549 cells assessed as live cells at 8 uM after 48 hrs by annexin V-FITC/propidium iodide staining-based flow cytometric method (reference value: 93.6%); format: functional
A549 [7] = assay: Induction of apoptosis in human A549 cells assessed as early apoptotic cells at 8 uM after 48 hrs by annexin V-FITC/propidium iodide staining-based flow cytometric method (reference value: 3.87%); format: functional
A549 [8] = assay: Induction of apoptosis in human A549 cells assessed as late apoptotic cells at 8 uM after 48 hrs by annexin V-FITC/propidium iodide staining-based flow cytometric method (reference value: 2.39%); format: functional
A549 [9] = assay: Induction of apoptosis in human A549 cells assessed as necrotic cells at 8 uM after 48 hrs by annexin V-FITC/propidium iodide staining-based flow cytometric method (reference value: 0.13%); format: functional
A549 [10] = assay: Induction of apoptosis in human A549 cells assessed as live cells at 16 uM after 48 hrs by annexin V-FITC/propidium iodide staining-based flow cytometric method (reference value: 93.6%); format: functional
A549 [11] = assay: Induction of apoptosis in human A549 cells assessed as early apoptotic cells at 16 uM after 48 hrs by annexin V-FITC/propidium iodide staining-based flow cytometric method (reference value: 3.87%); format: functional
A549 [12] = assay: Induction of apoptosis in human A549 cells assessed as late apoptotic cells at 16 uM after 48 hrs by annexin V-FITC/propidium iodide staining-based flow cytometric method (reference value: 2.39%); format: functional
A549 [13] = assay: Induction of apoptosis in human A549 cells assessed as necrotic cells at 16 uM after 48 hrs by annexin V-FITC/propidium iodide staining-based flow cytometric method (reference value: 0.13%); format: functional
A549 [14] = assay: Induction of apoptosis in human A549 cells assessed as live cells at 24 uM after 48 hrs by annexin V-FITC/propidium iodide staining-based flow cytometric method (reference value: 93.6%); format: functional
A549 [15] = assay: Induction of apoptosis in human A549 cells assessed as early apoptotic cells at 24 uM after 48 hrs by annexin V-FITC/propidium iodide staining-based flow cytometric method (reference value: 3.87%); format: functional
A549 [16] = assay: Induction of apoptosis in human A549 cells assessed as late apoptotic cells at 24 uM after 48 hrs by annexin V-FITC/propidium iodide staining-based flow cytometric method (reference value: 2.39%); format: functional
A549 [17] = assay: Induction of apoptosis in human A549 cells assessed as necrotic cells at 24 uM after 48 hrs by annexin V-FITC/propidium iodide staining-based flow cytometric method (reference value: 0.13%); format: functional
A549 [18] = assay: Cell cycle arrest in human A549 cells assessed as accumulation at G0/G1 phase at 8 uM after 48 hrs by propidium iodide staining based flow cytometric analysis (reference value: 42.86%); format: functional
A549 [19] = assay: Cell cycle arrest in human A549 cells assessed as accumulation at S phase at 8 uM after 48 hrs by propidium iodide staining based flow cytometric analysis (reference value: 54.85%); format: functional
A549 [20] = assay: Cell cycle arrest in human A549 cells assessed as accumulation at G2/M phase at 8 uM after 48 hrs by propidium iodide staining based flow cytometric analysis (reference value: 2.29%); format: functional
A549 [21] = assay: Cell cycle arrest in human A549 cells assessed as accumulation at G0/G1 phase at 16 uM after 48 hrs by propidium iodide staining based flow cytometric analysis (reference value: 42.86%); format: functional
A549 [22] = assay: Cell cycle arrest in human A549 cells assessed as accumulation at S phase at 16 uM after 48 hrs by propidium iodide staining based flow cytometric analysis (reference value: 54.85%); format: functional
A549 [23] = assay: Cell cycle arrest in human A549 cells assessed as accumulation at G2/M phase at 16 uM after 48 hrs by propidium iodide staining based flow cytometric analysis (reference value: 2.29%); format: functional
A549 [24] = assay: Cell cycle arrest in human A549 cells assessed as accumulation at G0/G1 phase at 24 uM after 48 hrs by propidium iodide staining based flow cytometric analysis (reference value: 42.86%); format: functional
A549 [25] = assay: Cell cycle arrest in human A549 cells assessed as accumulation at S phase at 24 uM after 48 hrs by propidium iodide staining based flow cytometric analysis (reference value: 54.85%); format: functional
A549 [26] = assay: Cell cycle arrest in human A549 cells assessed as accumulation at G2/M phase at 24 uM after 48 hrs by propidium iodide staining based flow cytometric analysis (reference value: 2.29%); format: functional
A549 [27] = assay: Cell cycle arrest in human A549 cells assessed as accumulation at G0/G1 phase after 48 hrs by propidium iodide staining based flow cytometric analysis; format: functional
A549 [28] = assay: Induction of apoptosis in human A549 cells after 48 hrs by annexin V-FITC/propidium iodide staining-based flow cytometric method; format: functional, cell-based
[29] = biological target: T1, Solute carrier family 2, facilitated glucose transporter member 1; assay: Substrate activity at GLUT1 in human A549 cells assessed cellular uptake at 20 uM after 8 hrs in presence of 50 mM D-glucose by HPLC analysis relative to control; format: ADME, cell-based; details: a549, 8 h
[30] = biological target: T1, Solute carrier family 2, facilitated glucose transporter member 1; assay: Substrate activity at GLUT1 in human A549 cells assessed cellular uptake at 20 uM after 8 hrs in presence of 100 mM D-glucose by HPLC analysis relative to control; format: ADME, cell-based; details: a549, 8 h
[31] = biological target: T1, Solute carrier family 2, facilitated glucose transporter member 1; assay: Substrate activity at GLUT1 in human A549 cells assessed cellular uptake at 20 uM after 8 hrs in presence of 50 mM GLUT1 inhibitor EDG by HPLC analysis relative to control; format: ADME, cell-based; details: a549, 8 h
[32] = biological target: T1, Solute carrier family 2, facilitated glucose transporter member 1; assay: Substrate activity at GLUT1 in human A549 cells assessed cellular uptake at 20 uM after 8 hrs in presence of 100 mM GLUT1 inhibitor EDG by HPLC analysis relative to control; format: ADME, cell-based; details: a549, 8 h

IC50 (A549 [2]): 23.6 µM
IC50 (HepG2): 18.8 µM
IC50 (HeLa): 20.4 µM
Structure (SMILES): COc1cc(CO)c(Br)c(Br)c1OCCCO[C@@H]1O[C@H](CO)[C@@H](O)[C@H]1O
IC50 [1]: 11.2 µM

Drug uptake [3]: Not Active
Structure (SMILES): COc1cc(COC(C)C)c(Br)c(Br)c1O

IC50 (A549 [2]): 11.4 µM
IC50 (HepG2): 14.7 µM
IC50 (HeLa): 19.3 µM
Drug uptake [3]: 60.3%
Drug uptake [29]: 51.6%
Drug uptake [30]: 49.1%
Drug uptake [31]: 42.1%
Drug uptake [32]: 34.6%
Structure (SMILES): COc1cc(COC(C)C)c(Br)c(Br)c1OCCCO[C@@H]1O[C@H](CO)[C@@H](O)[C@H]1O
IC50 [1]: 11.3 µM
Ratio IC50 (A549 [4]): 2
Activity (A549 [5]): Dose-dependent effect
Activity (A549 [6]): 91.8%
Activity (A549 [7]): 4.18%
Activity (A549 [8]): 3.75%
Activity (A549 [9]): 0.24%
Activity (A549 [10]): 88.1%
Activity (A549 [11]): 7.66%
Activity (A549 [12]): 3.91%
Activity (A549 [13]): 0.32%
Activity (A549 [14]): 81.8%
Activity (A549 [15]): 13.7%
Activity (A549 [16]): 4.35%
Activity (A549 [17]): 0.15%
Activity (A549 [18]): 59.17%
Activity (A549 [19]): 40.83%
Activity (A549 [20]): 0%
Activity (A549 [21]): 76.56%
Activity (A549 [22]): 23.44%
Activity (A549 [23]): 0%
Activity (A549 [24]): 89.56%
Activity (A549 [25]): 10.25%
Activity (A549 [26]): 0.19%
Activity (A549 [27]): Dose-dependent effect
Activity (A549 [28]): Dose-dependent effect
